Columns and labels:
CYP 3A4 mRNA = test: CYP3A4 Induction Assay (qPCR, human hepatocytes); assay type: in vitro ADME; conditions: 10 μM compound, relative to rifampicin 10 μM
Summary of the method: (§1)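 Cryopreserved human hepatocytes (60,000 cells/well), overlaid with Geltrex, were dosed at 10 μM final, with omeprazole, rifampicin and probenecid as controls. RNA was isolated on day 3. CYP3A4 mRNA was measured by TaqMan RT-qPCR with GAPDH as the reference gene.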

CYP3A4 mRNA = test: CYP3A4 Induction Assay (qPCR, human hepatocytes); assay type: in vitro ADME; conditions: cryopreserved human hepatocytes (plated), 10 μM compound, mRNA fold over vehicle (0.1% DMSO)
Summary of the method: as §1

OCI-LY3 IL6 = test: MALT-1 Cell IL-6 AlphaLISA Assay; assay type: cell-based; conditions: Homo sapiens; OCI-LY3 cells, 48 hours incubation; read-out: OCI-LY3 IL6 48 hour Inhibition EC50
Summary of the method: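 MALT-1-dependent ABC-DLBCL OCI-LY3 cells were seeded at 50,000 cells/mL onto compound (30 μM to 1.5 nM) and incubated 48 hours at 37° C. Secreted human IL-6 in the medium was measured by AlphaLISA with acceptor beads, biotinylated anti-IL-6 antibody and streptavidin donor beads.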

male Sprague-Dawley rats = test: Cardiovascular Assay in anesthetized rats; assay type: in vivo; conditions: rat; for HR (%) / MAP (%) / dP/dt@50 (%): change from vehicle; for Drug (μg/mL SEM): plasma at end of infusion
Experimental: The following cardiovascular assay was conducted using male Sprague-Dawley rats that were anesthetized with Inactin (thiobutabarbital), instrumented (catheterized both femoral artery and vein; catheterize left ventricular) and allowed to stabilize. Following a 30-minute baseline period, each compound was infused at low, medium, and high doses/30 minutes. Plasma samples were taken at the end of each dose infusion. If, at any point, the mean arterial pressure (MAP) of an animal decreased below 70 mmHg, the infusion was immediately stopped, a final blood sample was taken, and hemodynamic data for that animal was removed from the group average for all subsequent time points. A 15% change from vehicle for MAP or heart rate (HR), respectively, is considered biologically relevant. A 20% change from vehicle for dP/dt@50 is considered biologically relevant.

human MALT-1 protein = human MALT-1 protein (Homo sapiens (Human), UniProt Q9UDY8); test: MALT-1 Biochemical Assay (Quench-FRET enzyme assay); conditions: human MALT-1 6 nM, substrate 2 μM, 40 min preincubation
Sequence of human MALT-1 protein (Q9UDY8 whole entry): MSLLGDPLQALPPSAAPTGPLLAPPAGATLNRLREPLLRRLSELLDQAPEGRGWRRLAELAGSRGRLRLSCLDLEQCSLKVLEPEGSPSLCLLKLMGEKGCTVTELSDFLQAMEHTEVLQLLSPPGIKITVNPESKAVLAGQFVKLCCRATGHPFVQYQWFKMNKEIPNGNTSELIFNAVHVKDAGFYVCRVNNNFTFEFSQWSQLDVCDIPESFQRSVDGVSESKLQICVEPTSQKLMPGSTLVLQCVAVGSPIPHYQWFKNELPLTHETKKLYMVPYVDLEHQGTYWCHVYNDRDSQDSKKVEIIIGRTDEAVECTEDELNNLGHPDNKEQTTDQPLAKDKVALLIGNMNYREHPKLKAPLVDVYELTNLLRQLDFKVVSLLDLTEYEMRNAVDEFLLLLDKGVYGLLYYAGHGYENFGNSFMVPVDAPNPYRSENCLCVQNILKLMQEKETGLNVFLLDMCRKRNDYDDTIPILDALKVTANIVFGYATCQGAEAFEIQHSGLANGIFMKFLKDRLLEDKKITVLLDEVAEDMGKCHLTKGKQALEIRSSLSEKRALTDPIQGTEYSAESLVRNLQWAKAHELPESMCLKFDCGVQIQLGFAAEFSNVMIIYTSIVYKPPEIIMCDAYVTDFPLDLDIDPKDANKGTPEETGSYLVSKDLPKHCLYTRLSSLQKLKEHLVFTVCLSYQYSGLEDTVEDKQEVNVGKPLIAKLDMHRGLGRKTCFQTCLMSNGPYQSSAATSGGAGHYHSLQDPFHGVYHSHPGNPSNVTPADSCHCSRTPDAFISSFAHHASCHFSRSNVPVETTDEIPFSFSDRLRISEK
Summary of the method: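 Human MALT-1 (6 nM) preincubated 40 min at room temperature with compound in pH 7.5 HEPES buffer containing 0.8 M sodium citrate and 2 mM DTT. Then 2 μM quenched TAMRA/QSY7 peptide substrate added for 60 min. Cleavage read by fluorescence (Ex 535/Em 590); EC50 is half-maximal inhibition of protease activity.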

Row | SMILES | CYP3A4 % of positive control (%) (CYP 3A4 mRNA) | fold induction at 1 day, 10 µM (CYP3A4 mRNA) | EC50 (OCI-LY3 IL6) [nM] | HR (%) (male Sprague-Dawley rats; dose 3 mg/kg) | MAP (%) (male Sprague-Dawley rats; dose 3 mg/kg) | dP/dt@50 (%) (male Sprague-Dawley rats; dose 3 mg/kg) | HR (%) (male Sprague-Dawley rats; dose 10 mg/kg) | MAP (%) (male Sprague-Dawley rats; dose 10 mg/kg) | dP/dt@50 (%) (male Sprague-Dawley rats; dose 10 mg/kg) | HR (%) (male Sprague-Dawley rats; dose 30 mg/kg) | MAP (%) (male Sprague-Dawley rats; dose 30 mg/kg) | dP/dt@50 (%) (male Sprague-Dawley rats; dose 30 mg/kg) | Drug (μg/mL SEM) (male Sprague-Dawley rats; dose 3 mg/kg) [µg/mL] | Drug (μg/mL SEM) (male Sprague-Dawley rats; dose 10 mg/kg) [µg/mL] | Drug (μg/mL SEM) (male Sprague-Dawley rats; dose 30 mg/kg) [µg/mL] | EC50 (human MALT-1 protein) [nM]
1 | CO[C@@H](C)c1c(Nc2ccc([C@H](N(C)C(=O)C3CCN(C(C)=O)CC3)C(F)(F)F)cc2)cnc2sc(C)nc12 [Example 19, 1-acetyl-N-methyl-N-{(1S)-2,2,2-trifluoro-1-[4-({7-[(1S)-1-methoxyethyl]-2-methyl[1,3]thiazolo [5,4-b]pyridin-6-yl}amino)phenyl]ethyl}piperidine-4-carboxamide] | (−0.162) % | 0.985 | 950 | −5 | 0 | −5 | −5 | −1 | −5 | −9 | −2 | −3 | 2.51 ± 0.29 | 8.92 ± 0.73 | 25.13 ± 0.98 | 198
2 | CO[C@@H](C)c1c(Nc2ccc([C@H](N(C)C(=O)C3CCS(=O)(=O)CC3)C(F)(F)F)cc2)cnc2sc(C)nc12 [Example 1, N-methyl-1,1-dioxo-N-{(1S)-2,2,2-trifluoro-1-[4-({7-[(1S)-1-methoxyethyl]-2-methyl[1,3]thiazolo[5,4-b]pyridin-6-yl}amino)phenyl]ethyl}-1λ^6-thiane-4-carboxamide] | (5.46) % | 1.45 | 200 | −4 | −5 | 5 | −8 | −8 | 12 | −17 | −16 | 11 | 2.32 ± 0.12 | 9.36 ± 0.41 | 24.00 ± 1.63 | 91
3 | CO[C@@H](c1c(Nc2ccc([C@H](N(C)C(=O)C3CCN(C(C)=O)CC3)C(F)(F)F)cc2)cnc2sc(C)nc12)C(F)F [Example 33, 1-acetyl-N-{(1S)-1-[4-({7-[(1S)-2,2-difluoro-1-methoxyethyl]-2-methyl[1,3]thiazolo [5,4-b]pyridin-6-yl}amino)phenyl]-2,2,2-trifluoroethyl}-N-methylpiperidine-4-carboxamide] | (20.2) % | 2.72 | 180 | −5 | −5 | 1 | −7 | −5 | 1 | −8 | −9 | 7 | 2.52 ± 0.39 | 11.20 ± 0.60 | 34.10 ± 1.95 | 162
4 | CO[C@H](c1c(Nc2ccc([C@@H](C(F)F)N(C)C(=O)C3CCS(=O)(=O)CC3)cc2)cnc2sc(C)nc12)C(F)(F)F [Example 14, N-{(1S)-2,2-difluoro-1-[4-({2-methyl-7-[(1R)-2,2,2-trifluoro-1-methoxyethyl][1,3]thiazolo[5,4-b]pyridin-6-yl}amino)phenyl]ethyl}-N-methyl-1,1-dioxo-1λ^6-thiane-4-carboxamide] | (27.3) % | 2.71 | 200 |  |  |  |  |  |  |  |  |  |  |  |  | 97
5 | CO[C@H](c1c(Nc2ccc([C@H](N(C)C(=O)C3CCS(=O)(=O)CC3)C(F)(F)F)cc2)cnc2sc(C)nc12)C(F)F [Example 3, N-{(1S)-1-[4-({7-[(1R)-2,2-difluoro-l-methoxyethyl]-2-methyl[1,3]thiazolo[5,4-b]pyridin-6-yl}amino)phenyl]-2,2,2-trifluoroethyl} -N-methyl-1,1-dioxo-1λ^6-thiane-4-carboxamide] | (1.75) % | 1.12 | 140 | −1 | 1 | 0 | −3 | 0 | 3 | −12 | −13 | −3 | 2.18 ± 0.10 | 8.34 ± 0.55 | 22.87 ± 2.67 | 110
6 | CO[C@@H](c1c(Nc2ccc([C@H](N(C)C(=O)C3CCS(=O)(=O)CC3)C(F)(F)F)cc2)cnc2sc(C)nc12)C(F)(F)F [Example 11, N-methyl-1,1-dioxo-N-{(1S)-2,2,2-trifluoro-1-[4-({2-methyl-7-[(1S)-2,2,2-trifluoro-1-methoxyethyl][1,3]thiazolo[5,4-b]pyridin-6-yl}amino)phenyl]ethyl}-1λ^6-thiane-4-carboxamide] | (20) % | 2.59 | 390 |  |  |  |  |  |  |  |  |  |  |  |  | 155
7 | CO[C@H](c1c(Nc2ccc([C@H](N(C)C(=O)C3CCS(=O)(=O)CC3)C(F)(F)F)cc2)cnc2sc(C)nc12)C(F)(F)F [Example 2, N-methyl-1,1-dioxo-N-{(1S)-2,2,2-trifluoro-1-[4-({2-methyl-7-[(1R)-2,2,2-trifluoro-1-methoxyethyl][1,3]thiazolo[5,4-b]pyridin-6-yl}amino)phenyl]ethyl}-1λ^6-thiane-4-carboxamide] | (2.19) % | 1.13 | 110 |  |  |  |  |  |  |  |  |  |  |  |  | 190
